system: HT-29 cells; assay: HT-29 necroptosis cell viability assay (TNF-α/SMAC mimetic/zVAD-FMK, CellTiter-Glo); assay type: cell-based; settings: Homo sapiens, HT-29, HT-29 necroptosis cell viability assay; class symbols for IC50; read-out: Activity
Outline: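 HT-29 cells (~5,000/well, overnight) in FBS-free McCoy's 5A with TNF-α 10 ng/ml, SMAC mimetic 6 μM and zVAD-FMK 10 μM plus 10-point 1:3 compound titration, 20 h at 37°C. ATP measured by CellTiter-Glo luminescence; IC50 as geometric mean of duplicates.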

`Cc1nc(Br)sc1Oc1ccc(-n2ncn(Cc3cc(Cl)ccn3)c2=O)cc1F` [Example 573, 2-(4-((2-bromo-4-methylthiazol-5-yl)oxy)-3-fluorophenyl)-4-((4-chloropyridin-2-yl)methyl)-2,4-dihydro-3H-1,2,4-triazol-3-one] and `Cc1nc(C#N)sc1Oc1ccc(-n2ncn(Cc3cc(Cl)ccn3)c2=O)cc1F` [Example 574, 5-(4-(4-((4-chloropyridin-2-yl)methyl)-5-oxo-4,5-dihydro-1H-1,2,4-triazol-1-yl)-2-fluorophenoxy)-4-methylthiazole-2-carbonitrile] fall in the same range of IC50: 100 to 1000 nM for the first, 100 to 1000 nM for the second.

First: COC(=O)c1nc(C)c(Oc2ccc(-n3ncn(Cc4cc(Cl)ccn4)c3=O)cc2F)s1 [Example 575, methyl 5-(4-(4-((4-chloropyridin-2-yl)methyl)-5-oxo-4,5-dihydro-1H-1,2,4-triazol-1-yl)-2-fluorophenoxy)-4-methylthiazole-2-carboxylate]
Second: CNC(=O)c1nc(C)c(Oc2ccc(-n3ncn(Cc4ncccc4Cl)c3=O)cc2F)s1 [Example 589, 5-(4-(4-((3-chloropyridin-2-yl)methyl)-5-oxo-4,5-dihydro-1H-1,2,4-triazol-1-yl)-2-fluorophenoxy)-N,4-dimethylthiazole-2-carboxamide]
The IC50 of the first is higher: 1000 to 10000 nM for the first, under 100 nM for the second. The second is the more potent here.

`Cc1nc(C#N)sc1Oc1ccc(-n2ncn(Cc3ncccc3Cl)c2=O)cc1F` [Example 576, 5-(4-(4-((3-chloropyridin-2-yl)methyl)-5-oxo-4,5-dihydro-1H-1,2,4-triazol-1-yl)-2-fluorophenoxy)-4-methylthiazole-2-carbonitrile] and `Cc1nc(C(N)=O)sc1Oc1ccc(-n2ncn(Cc3ncccc3Cl)c2=O)cc1F` [Example 590, 5-(4-(4-((3-chloropyridin-2-yl)methyl)-5-oxo-4,5-dihydro-1H-1,2,4-triazol-1-yl)-2-fluorophenoxy)-4-methylthiazole-2-carboxamide] cannot be ordered by IC50: under 100 nM for the first, under 100 nM for the second.

`CCC(O)(CC)c1nc(C)c(Oc2ccc(-n3ncn(Cc4c(F)cccc4F)c3=O)cc2)s1` [Example 577, 4-(2,6-difluorobenzyl)-2-(4-((2-(3-hydroxypentan-3-yl)-4-methylthiazol-5-yl)oxy)phenyl)-2,4-dihydro-3H-1,2,4-triazol-3-one] and `CCC(O)(CC)c1nc(C)c(Oc2ccc(-n3ncn(Cc4c(F)cccc4F)c3=O)cc2F)s1` [Example 581, 4-(2,6-difluorobenzyl)-2-(3-fluoro-4-((2-(3-hydroxypentan-3-yl)-4-methylthiazol-5-yl)oxy)phenyl)-2,4-dihydro-3H-1,2,4-triazol-3-one] cannot be ordered by IC50: under 100 nM for the first, under 100 nM for the second.

`Cc1csc(Cn2cnn(-c3ccc(Oc4sc(C(C)(C)O)nc4C)c(F)c3)c2=O)n1` [Example 578, 2-(3-fluoro-4-((2-(2-hydroxypropan-2-yl)-4-methylthiazol-5-yl)oxy)phenyl)-4-((4-methylthiazol-2-yl)methyl)-2,4-dihydro-3H-1,2,4-triazole-3-one] and `Cc1nc(C(C)(C)O)sc1Oc1ccc(-n2ncn(Cc3ccccc3C#N)c2=O)cc1F` [Example 584, 2-((1-(3-fluoro-4-((2-(2-hydroxypropan-2-yl)-4-methylthiazol-5-yl)oxy)phenyl)-5-oxo-1,5-dihydro-4H-1,2,4-triazol-4-yl)methyl)benzonitrile] fall in the same range of IC50: 100 to 1000 nM for the first, 100 to 1000 nM for the second.

`Cc1nc(C(C)(C)O)sc1Oc1ccc(-n2ncn(Cc3c(F)cccc3C#N)c2=O)cc1F` [Example 579, 3-fluoro-2-((1-(3-fluoro-4-((2-(2-hydroxypropan-2-yl)-4-methylthiazol-5-yl)oxy)phenyl)-5-oxo-1,5-dihydro-4H-1,2,4-triazol-4-yl)methyl)benzonitrile] and `Cc1nc(C(C)(C)O)sc1Oc1ccc(-n2ncn(Cc3c(F)cccc3F)c2=O)cc1Cl` [Example 583, 2-(3-chloro-4-((2-(2-hydroxypropan-2-yl)-4-methylthiazol-5-yl)oxy)phenyl)-4-(2,6-difluorobenzyl)-2,4-dihydro-3H-1,2,4-triazol-3-one] cannot be ordered by IC50: under 100 nM for the first, under 100 nM for the second.

`Cc1nc(C2(O)CC2)sc1Oc1ccc(-n2ncn(Cc3c(F)cccc3F)c2=O)cc1` [Example 580, 4-(2,6-difluorobenzyl)-2-(4-((2-(1-hydroxycyclopropyl)-4-methylthiazol-5-yl)oxy)phenyl)-2,4-dihydro-3H-1,2,4-triazol-3-one] and `Cc1nc(C2(O)CC2)sc1Oc1ccc(-n2ncn(Cc3c(F)cccc3F)c2=O)cc1F` [Example 582, 4-(2,6-difluorobenzyl)-2-(3-fluoro-4-((2-(1-hydroxycyclopropyl)-4-methylthiazol-5-yl)oxy)phenyl)-2,4-dihydro-3H-1,2,4-triazol-3-one] cannot be ordered by IC50: under 100 nM for the first, under 100 nM for the second.

`Cc1nc(C2(O)COC2)sc1Oc1ccc(-n2ncn(Cc3c(F)cccc3F)c2=O)cc1F` [Example 585, 4-(2,6-difluorobenzyl)-2-(3-fluoro-4-((2-(3-hydroxyoxetan-3-yl)-4-methylthiazol-5-yl)oxy)phenyl)-2,4-dihydro-3H-1,2,4-triazol-3-one] and `Cc1nc(C2(O)CCC2)sc1Oc1ccc(-n2ncn(Cc3c(F)cccc3F)c2=O)cc1F` [Example 586, 4-(2,6-difluorobenzyl)-2-(3-fluoro-4-((2-(1-hydroxycyclobutyl)-4-methylthiazol-5-yl)oxy)phenyl)-2,4-dihydro-3H-1,2,4-triazol-3-one] cannot be ordered by IC50: under 100 nM for the first, under 100 nM for the second.

`Cc1nc(C(=O)N2C[C@H](N)[C@@H]2C)sc1Oc1ccc(-n2ncn(Cc3ccccc3F)c2=O)cc1F` [Example 587, 2-(4-((2-((2S,3S)-3-amino-2-methylazetidine-1-carbonyl)-4-methylthiazol-5-yl)oxy)-3-fluorophenyl)-4-(2-fluorobenzyl)-2,4-dihydro-3H-1,2,4-triazol-3-one] and `Cc1nc(C(=O)N2CC(N)C2)sc1Oc1ccc(-n2ncn(Cc3ccccc3F)c2=O)cc1F` [Example 600, 2-(4-((2-(3-aminoazetidine-1-carbonyl)-4-methylthiazol-5-yl)oxy)-3-fluorophenyl)-4-(2-fluorobenzyl)-2,4-dihydro-3H-1,2,4-triazol-3-one] cannot be ordered by IC50: under 100 nM for the first, under 100 nM for the second.

`Cc1nc(C(=O)N2C[C@H](O)[C@@H]2C)sc1Oc1ccc(-n2ncn(Cc3c(F)cccc3F)c2=O)cc1F` [Example 588, 4-(2,6-difluorobenzyl)-2-(3-fluoro-4-((2-((2S,3S)-3-hydroxy-2-methylazetidine-1-carbonyl)-4-methylthiazol-yl)oxy)phenyl)-2,4-dihydro-3H-1,2,4-triazol-3-one] and `Cc1nc(C(=O)N2CC(C)(O)C2)sc1Oc1ccc(-n2ncn(Cc3c(F)cccc3F)c2=O)cc1F` [Example 597, 4-(2,6-difluorobenzyl)-2-(3-fluoro-4-((2-(3-hydroxy-3-methylazetidine-1-carbonyl)-4-methylthiazol-5-yl)oxy)phenyl)-2,4-dihydro-3H-1,2,4-triazol-3-one] cannot be ordered by IC50: under 100 nM for the first, under 100 nM for the second.

`Cc1nc(C(=O)N2CC(C)(N)C2)sc1Oc1ccc(-n2ncn(Cc3ccccc3F)c2=O)cc1F` [Example 591, 2-(4-((2-(3-amino-3-methylazetidine-1-carbonyl)-4-methylthiazol-5-yl)oxy)-3-fluorophenyl)-4-(2-fluorobenzyl)-2,4-dihydro-3H-1,2,4-triazol-3-one] and `Cc1nc(C(=O)N2CC(O)C2)sc1Oc1ccc(-n2ncn(Cc3ccccc3F)c2=O)cc1F` [Example 593, 2-(3-fluoro-4-((2-(3-hydroxyazetidine-1-carbonyl)-4-methylthiazol-5-yl)oxy)phenyl)-4-(2-fluorobenzyl)-2,4-dihydro-3H-1,2,4-triazol-3-one] cannot be ordered by IC50: under 100 nM for the first, under 100 nM for the second.

Compared with `Cc1nc(C(=O)N2CC(C#N)C2)sc1Oc1ccc(-n2ncn(Cc3ccccc3F)c2=O)cc1F` [Example 592, 1-(5-(2-fluoro-4-(4-(2-fluorobenzyl)-5-oxo-4,5-dihydro-1H-1,2,4-triazol-1-yl)phenoxy)-4-methylthiazole-2-carbonyl)azetidine-3-carbonitrile], `Cc1nc(C(=O)NO)sc1Oc1ccc(-n2ncn(Cc3ccccc3F)c2=O)cc1F` [Example 594, 5-(2-fluoro-4-(4-(2-fluorobenzyl)-5-oxo-4,5-dihydro-1H-1,2,4-triazol-1-yl)phenoxy)-N-hydroxy-4-methylthiazole-2-carboxamide] is higher in IC50: under 100 nM for the first, 100 to 1000 nM for the second. The first is the more potent here.

`CNC(=O)c1nc(C)c(Oc2ccc(-n3ncn(Cc4ccccc4F)c3=O)cc2F)s1` [Example 595, 5-(2-fluoro-4-(4-(2-fluorobenzyl)-5-oxo-4,5-dihydro-1H-1,2,4-triazol-1-yl)phenoxy)-N,4-dimethylthiazole-2-carboxamide] and `Cc1nc(C(=O)NN)sc1Oc1ccc(-n2ncn(Cc3ccccc3F)c2=O)cc1F` [Example 596, 5-(2-fluoro-4-(4-(2-fluorobenzyl)-5-oxo-4,5-dihydro-1H-1,2,4-triazol-1-yl)phenoxy)-4-methylthiazole-2-carbohydrazide] cannot be ordered by IC50: under 100 nM for the first, under 100 nM for the second.

`Cc1nc(C(=O)N2CC(NC(=O)OC(C)(C)C)C2)sc1Oc1ccc(-n2ncn(Cc3ccccc3F)c2=O)cc1F` [Example 598, tert-butyl (1-(5-(2-fluoro-4-(4-(2-fluorobenzyl)-5-oxo-4,5-dihydro-1H-1,2,4-triazol-1-yl)phenoxy)-4-methylthiazole-2-carbonyl)azetidin-3-yl)carbamate] and `Cc1nc(C(=O)NC2COC2)sc1Oc1ccc(-n2ncn(Cc3ccccc3F)c2=O)cc1F` [Example 603, 5-(2-fluoro-4-(4-(2-fluorobenzyl)-5-oxo-4,5-dihydro-1H-1,2,4-triazol-1-yl)phenoxy)-4-methyl-N-(oxetan-3-yl)thiazole-2-carboxamide] cannot be ordered by IC50: under 100 nM for the first, under 100 nM for the second.

`CNC(=O)c1nc(C)c(Oc2ccc(-n3ncn(Cc4cnccc4Cl)c3=O)cc2F)s1` [Example 599, 5-(4-(4-((4-chloropyridin-3-yl)methyl)-5-oxo-4,5-dihydro-1H-1,2,4-triazol-1-yl)-2-fluorophenoxy)-N,4-dimethylthiazole-2-carboxamide] and `Cc1nc(C(=O)NCC2COC2)sc1Oc1ccc(-n2ncn(Cc3ccccc3F)c2=O)cc1F` [Example 604, 5-(2-fluoro-4-(4-(2-fluorobenzyl)-5-oxo-4,5-dihydro-1H-1,2,4-triazol-1-yl)phenoxy)-4-methyl-N-(oxetan-3-ylmethyl)thiazole-2-carboxamide] cannot be ordered by IC50: under 100 nM for the first, under 100 nM for the second.
